Experimental data published in patent publication US20240342175A1, “Compositions and Methods for Treating Spinal Cord Injury and Synaptic Dysfunction” (priority 2021, published 2024).
Like-named read-outs stand apart in the source and are kept apart here.

What was measured:
Fmr1 knock-out mice [1] = experiment: Nesting / test of daily living in Fmr1 knock-out mice; format: in vivo; design: key: X indicates failure to ameliorate the phenotype; Y reversed the phenotype; details: repeat experiment, 15 days
Method: (§1) Fmr1 knock-out mice (n=10) were orally administered 10 mg/kg/day or 100 mg/kg/day belumosudil or vehicle (BID) for 15 days. Control groups included wild type mice and knock out mice with vehicle. Mice treated with 100 mg/kg belumosudil ameliorated the following behavioral phenotypes: open field/hyperactivity, self-grooming/stereotypy, hyponeophagia/anxiety, nesting/test of daily living, 3-chamber social novelty/sociability; resident intruder and fear conditioning.
(§2) The experiment was repeated where knock out mice received belumosudil at 20 mg/kg/day, 60 mg/kg/day and 100 mg/kg/day (BID) for 15 days. One group of knock out mice received 10 mg/kg/day belumosudil in combination with 10 mg/kg/day minocycline for 15 days. Control groups included wild type mice and knock out mice with vehicle. The results are set forth below, where X indicates failure to ameliorate the phenotype and Y reversed the phenotype: […]

Fmr1 knock-out mice [2] = experiment: Hyponeophagia / anxiety in Fmr1 knock-out mice; format: in vivo; design: key: X indicates failure to ameliorate the phenotype; Y reversed the phenotype; details: repeat experiment, 15 days
Method: as §1, §2

Fmr1 knock-out mice [3] = experiment: Fear conditioning in Fmr1 knock-out mice; format: in vivo; design: key: X indicates failure to ameliorate the phenotype; Y reversed the phenotype; details: repeat experiment, 15 days
Method: as §1, §2

Fmr1 knock-out mice [4] = experiment: Self-grooming / stereotypy in Fmr1 knock-out mice; format: in vivo; design: key: X indicates failure to ameliorate the phenotype; Y reversed the phenotype; details: repeat experiment, 15 days
Method: as §1, §2

Fmr1 knock-out mice [5] = experiment: Open field / hyperactivity in Fmr1 knock-out mice; format: in vivo; design: key: X indicates failure to ameliorate the phenotype; Y reversed the phenotype; details: repeat experiment, 15 days
Method: as §1, §2

Fmr1 knock-out mice [6] = experiment: 3-chamber social novelty / sociability in Fmr1 knock-out mice; format: in vivo; design: key: X indicates failure to ameliorate the phenotype; Y reversed the phenotype; details: repeat experiment, 15 days
Method: as §1, §2

Fmr1 knock-out mice [7] = experiment: Novel object recognition / cognition in Fmr1 knock-out mice; format: in vivo; design: key: X indicates failure to ameliorate the phenotype; Y reversed the phenotype; details: repeat experiment, 15 days
Method: as §1, §2

Fmr1 knock-out mice [8] = experiment: Resident intruder in Fmr1 knock-out mice; format: in vivo; design: key: X indicates failure to ameliorate the phenotype; Y reversed the phenotype; details: repeat experiment, 15 days
Method: as §1, §2

[9] = cited from earlier work
[10] = belumosudil 100 mg/kg/day (BID)

CC(C)NC(=O)COc1cccc(-c2nc(Nc3ccc4[nH]ncc4c3)c3ccccc3n2)c1 [belumosudil]
Nesting: Test of Daily Living (Fmr1 knock-out mice [1]; belumosudil 20 mg/kg/day (BID)): Y
Nesting: Test of Daily Living (Fmr1 knock-out mice [1]; belumosudil 60 mg/kg/day (BID)): Y
Nesting: Test of Daily Living (Fmr1 knock-out mice [1]; [10]): Y
Hyponeophagia: Anxiety (Fmr1 knock-out mice [2]; belumosudil 20 mg/kg/day (BID)): X
Hyponeophagia: Anxiety (Fmr1 knock-out mice [2]; belumosudil 60 mg/kg/day (BID)): X
Hyponeophagia: Anxiety (Fmr1 knock-out mice [2]; [10]): Y
Fear Conditioning (Fmr1 knock-out mice [3]; belumosudil 20 mg/kg/day (BID)): X
Fear Conditioning (Fmr1 knock-out mice [3]; belumosudil 60 mg/kg/day (BID)): Y
Fear Conditioning (Fmr1 knock-out mice [3]; [10]): Y
Self-Grooming: Stereotypy (Fmr1 knock-out mice [4]; belumosudil 20 mg/kg/day (BID)): X
Self-Grooming: Stereotypy (Fmr1 knock-out mice [4]; belumosudil 60 mg/kg/day (BID)): X
Self-Grooming: Stereotypy (Fmr1 knock-out mice [4]; [10]): Y
Open Field: Hyperactivity (Fmr1 knock-out mice [5]; belumosudil 20 mg/kg/day (BID)): X
Open Field: Hyperactivity (Fmr1 knock-out mice [5]; belumosudil 60 mg/kg/day (BID)): X
Open Field: Hyperactivity (Fmr1 knock-out mice [5]; [10]): Y
3 Chamber Social Novelty: Sociability (Fmr1 knock-out mice [6]; belumosudil 20 mg/kg/day (BID)): X
3 Chamber Social Novelty: Sociability (Fmr1 knock-out mice [6]; belumosudil 60 mg/kg/day (BID)): X
3 Chamber Social Novelty: Sociability (Fmr1 knock-out mice [6]; [10]): Y
Novel Object Recognition: Cognition (Fmr1 knock-out mice [7]; belumosudil 20 mg/kg/day (BID)): X
Novel Object Recognition: Cognition (Fmr1 knock-out mice [7]; belumosudil 60 mg/kg/day (BID)): X
Novel Object Recognition: Cognition (Fmr1 knock-out mice [7]; [10]): X
Resident Intruder (Fmr1 knock-out mice [8]; belumosudil 20 mg/kg/day (BID)): X
Resident Intruder (Fmr1 knock-out mice [8]; belumosudil 60 mg/kg/day (BID)): Y
Resident Intruder (Fmr1 knock-out mice [8]; [10]): Y
AE: cough ([9]; 200 mg once daily (QD) arm): 18
AE: diarrhea ([9]; 200 mg once daily (QD) arm): 24%
AE: dyspnea ([9]; 200 mg once daily (QD) arm): 20%
AE: edema ([9]; 200 mg once daily (QD) arm): 24%
AE: fatigue ([9]; 200 mg once daily (QD) arm): 30%
AE: liver related investigations ([9]; 200 mg once daily (QD) arm): 20%
AE: nausea ([9]; 200 mg once daily (QD) arm): 23%
Serious AE: nausea ([9]; 200 mg once daily (QD) arm): 3%
Serious AE: pneumonia ([9]; 200 mg once daily (QD) arm): 3%
Serious AE: pyrexia ([9]; 200 mg once daily (QD) arm): 5%
Serious AE: vomiting ([9]; 200 mg once daily (QD) arm): 3%
AE: cough ([9]; 200 mg twice daily (BID) arm): 14%
AE: diarrhea ([9]; 200 mg twice daily (BID) arm): 18%
AE: dyspnea ([9]; 200 mg twice daily (BID) arm): 12%
AE: edema ([9]; 200 mg twice daily (BID) arm): 15%
AE: fatigue ([9]; 200 mg twice daily (BID) arm): 18%
AE: liver related investigations ([9]; 200 mg twice daily (BID) arm): 23%
AE: nausea ([9]; 200 mg twice daily (BID) arm): 20%
Serious AE: nausea ([9]; 200 mg twice daily (BID) arm): 2%
Serious AE: pneumonia ([9]; 200 mg twice daily (BID) arm): 3%
Serious AE: pyrexia ([9]; 200 mg twice daily (BID) arm): 0
Serious AE: vomiting ([9]; 200 mg twice daily (BID) arm): 2%
safety and efficacy in clinical trial ([9]; 132 patients, 200 mg QD or 200 mg BID): safe and efficacious
